Experimental data taken from PubChem BioAssay AID1845197 (Molecular Pharmacology Branch, DTP, NCI, 2023).

Tested on: 349418-098-R tumor spheroid viability
Assay: Anticancer human tumor 349418-098-R patient-derived lung adenocarcinoma cell line growth inhibition
Details: spheroids with HUVEC and MSC; for IC50: curve of first compound; for viability, T/C: stronger effect = lower value
Method in brief: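 Complex spheroids of malignant cells with endothelial cells and mesenchymal stem cells; agents alone or combined, from near clinical Cmax (or 10 microM if unknown) down in half-log steps, 0.25% DMSO final.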
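Further: spheroids exposed to compound for 7 days before measurement.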
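Wherever viability, T/C is given: percent of vehicle control viability with 100% = DMSO-treated spheroids.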

COc1cc(C)[nH]c(=O)c1CN1CCc2c(Cl)cc(C(OC)C3COC3)c(Cl)c2C1=O (stereo not given) + COc1cc2c(cc1O)CCNC21CSC2c3c(OC(C)=O)c(C)c4c(c3C(COC1=O)N1C(O)C3Cc5cc(C)c(OC)c(O)c5C(C21)N3C)OCO4
IC50 (second compound 30 pM): > 10 µM | IC50 (second compound 94.9 pM): > 10 µM | IC50 (second compound 0.0003 µM): > 10 µM | IC50 (second compound 0.000949 µM): < 0.0316 µM | IC50 (second compound 0.003 µM): < 0.0316 µM | viability, T/C (second compound 30 pM, first compound 0.0316 µM): 112% | viability, T/C (second compound 30 pM, first compound 0.1 µM): 106% | viability, T/C (second compound 30 pM, first compound 0.316 µM): 96.1% | viability, T/C (second compound 30 pM, first compound 1 µM): 97.2% | viability, T/C (second compound 30 pM, first compound 3.16 µM): 94.2% | viability, T/C (second compound 30 pM, first compound 10 µM): 93.3% | viability, T/C (second compound 94.9 pM, first compound 0.0316 µM): 112% | viability, T/C (second compound 94.9 pM, first compound 0.1 µM): 111% | viability, T/C (second compound 94.9 pM, first compound 0.316 µM): 102% | viability, T/C (second compound 94.9 pM, first compound 1 µM): 99.2% | viability, T/C (second compound 94.9 pM, first compound 3.16 µM): 90.8% | viability, T/C (second compound 94.9 pM, first compound 10 µM): 95.8% | viability, T/C (second compound 0.0003 µM, first compound 0.0316 µM): 95.4% | viability, T/C (second compound 0.0003 µM, first compound 0.1 µM): 85.8% | viability, T/C (second compound 0.0003 µM, first compound 0.316 µM): 84.3% | viability, T/C (second compound 0.0003 µM, first compound 1 µM): 79.9% | viability, T/C (second compound 0.0003 µM, first compound 3.16 µM): 64% | viability, T/C (second compound 0.0003 µM, first compound 10 µM): 53.1% | viability, T/C (second compound 0.000949 µM, first compound 0.0316 µM): 0.28% | viability, T/C (second compound 0.000949 µM, first compound 0.1 µM): 0.39% | viability, T/C (second compound 0.000949 µM, first compound 0.316 µM): 0.45% | viability, T/C (second compound 0.000949 µM, first compound 1 µM): 0.46% | viability, T/C (second compound 0.000949 µM, first compound 3.16 µM): 0.29% | viability, T/C (second compound 0.000949 µM, first compound 10 µM): 0.33% | viability, T/C (second compound 0.003 µM, first compound 0.0316 µM): 1.45% | viability, T/C (second compound 0.003 µM, first compound 0.1 µM): 1.46% | viability, T/C (second compound 0.003 µM, first compound 0.316 µM): 1.03% | viability, T/C (second compound 0.003 µM, first compound 1 µM): 1.48% | viability, T/C (second compound 0.003 µM, first compound 3.16 µM): 1.6% | viability, T/C (second compound 0.003 µM, first compound 10 µM): 2.3%

CC(C)n1c(=O)n(C)c2cnc3cc(F)c(-c4ccc(OCCCN5CCCCC5)nc4)cc3c21 + Cn1nnc2c(C(N)=O)ncn2c1=O
IC50 (second compound 1 µM): 9.75 µM | IC50 (second compound 3.16 µM): 9 µM | IC50 (second compound 10 µM): 9.25 µM | IC50 (second compound 31.6 µM): 8.89 µM | IC50 (second compound 100 µM): 8.48 µM | viability, T/C (second compound 1 µM, first compound 0.0316 µM): 104% | viability, T/C (second compound 1 µM, first compound 0.1 µM): 99.5% | viability, T/C (second compound 1 µM, first compound 0.316 µM): 101% | viability, T/C (second compound 1 µM, first compound 1 µM): 101% | viability, T/C (second compound 1 µM, first compound 3.16 µM): 103% | viability, T/C (second compound 1 µM, first compound 10 µM): 48.8% | viability, T/C (second compound 3.16 µM, first compound 0.0316 µM): 102% | viability, T/C (second compound 3.16 µM, first compound 0.1 µM): 105% | viability, T/C (second compound 3.16 µM, first compound 0.316 µM): 103% | viability, T/C (second compound 3.16 µM, first compound 1 µM): 103% | viability, T/C (second compound 3.16 µM, first compound 3.16 µM): 102% | viability, T/C (second compound 3.16 µM, first compound 10 µM): 44.7% | viability, T/C (second compound 10 µM, first compound 0.0316 µM): 98.6% | viability, T/C (second compound 10 µM, first compound 0.1 µM): 103% | viability, T/C (second compound 10 µM, first compound 0.316 µM): 99.6% | viability, T/C (second compound 10 µM, first compound 1 µM): 103% | viability, T/C (second compound 10 µM, first compound 3.16 µM): 104% | viability, T/C (second compound 10 µM, first compound 10 µM): 46.3% | viability, T/C (second compound 31.6 µM, first compound 0.0316 µM): 102% | viability, T/C (second compound 31.6 µM, first compound 0.1 µM): 106% | viability, T/C (second compound 31.6 µM, first compound 0.316 µM): 98.4% | viability, T/C (second compound 31.6 µM, first compound 1 µM): 105% | viability, T/C (second compound 31.6 µM, first compound 3.16 µM): 105% | viability, T/C (second compound 31.6 µM, first compound 10 µM): 43.9% | viability, T/C (second compound 100 µM, first compound 0.0316 µM): 103% | viability, T/C (second compound 100 µM, first compound 0.1 µM): 107% | viability, T/C (second compound 100 µM, first compound 0.316 µM): 105% | viability, T/C (second compound 100 µM, first compound 1 µM): 102% | viability, T/C (second compound 100 µM, first compound 3.16 µM): 102% | viability, T/C (second compound 100 µM, first compound 10 µM): 41.3%
